Laboratory results reported in ChEMBL document CHEMBL5528022, “Discovery of a brain-permeable bromodomain and extra terminal domain (BET) inhibitor with selectivity for BD1 for the treatment of multiple sclerosis” (Eur J Med Chem, 2024).
pIC50, pKd: −log10 of the molar value. ≈ marks a conversion by molar mass, not a printed value. Calls of active or inactive are those of the source. No cut-off for these calls is given here.

Key:
[1] = molecular target: T1, Bromodomain-containing protein 4 (Homo sapiens, UniProt O60885); experiment: Binding affinity to BRD4 BD1 (unknown origin) expressed in Escherichia coli BL21 (DE3) at 1:1 protein:compound ratio by MST assay
[2] = molecular target: T1, Bromodomain-containing protein 4; experiment: Binding affinity to BRD4 BD2 (unknown origin) expressed in Escherichia coli BL21 (DE3) at 1:1 protein:compound ratio by MST assay
[3] = Selectivity ratio of Kd for binding affinity to BRD4 BD2 (unknown origin) by MST assay to Kd for binding affinity to BRD4 BD1 (unknown origin) by MST assay
[4] = molecular target: T1, Bromodomain-containing protein 4; experiment: Binding affinity to BRD4 BD1 (unknown origin) expressed in Escherichia coli BL21 (DE3) by ITC assay
[5] = molecular target: T1, Bromodomain-containing protein 4; experiment: Binding affinity to BRD4 BD2 (unknown origin) expressed in Escherichia coli BL21 (DE3) by ITC assay
[6] = Selectivity ratio of Kd for binding affinity to BRD4 BD2 (unknown origin) by ITC assay to Kd for binding affinity to BRD4 BD1 (unknown origin) by ITC assay
[7] = molecular target: T1, Bromodomain-containing protein 4; experiment: Binding affinity to BRD4 BD1 (unknown origin) assessed as change in enthalpy by ITC method
[8] = molecular target: T1, Bromodomain-containing protein 4; experiment: Binding affinity to BRD4 BD1 (unknown origin) assessed as change in entropy by ITC method
[9] = molecular target: T1, Bromodomain-containing protein 4; experiment: Binding affinity to BRD4 BD1 (unknown origin) assessed as change in gibbs free energy by ITC method
[10] = molecular target: T1, Bromodomain-containing protein 4; experiment: Inhibition of BRD4 BD1 (unknown origin) incubated for 15 mins by HTRF method
[11] = molecular target: T1, Bromodomain-containing protein 4; experiment: Inhibition of BRD4 BD2 (unknown origin) incubated for 15 mins by HTRF method
[12] = molecular target: T2, Bromodomain-containing protein 3 (Homo sapiens, UniProt Q15059); experiment: Inhibition of BRD3 BD1 (unknown origin) incubated for 15 mins by HTRF method
[13] = molecular target: T2, Bromodomain-containing protein 3; experiment: Inhibition of BRD3 BD2 (unknown origin) incubated for 15 mins by HTRF method
[14] = molecular target: T3, Bromodomain-containing protein 2 (Homo sapiens, UniProt P25440); experiment: Inhibition of BRD2 BD1 (unknown origin) incubated for 15 mins by HTRF method
[15] = molecular target: T3, Bromodomain-containing protein 2; experiment: Inhibition of BRD2 BD2 (unknown origin) incubated for 15 mins by HTRF method
[16] = molecular target: T4, Bromodomain testis-specific protein (Homo sapiens, UniProt Q58F21); experiment: Inhibition of BRDT BD1 (unknown origin) incubated for 15 mins by HTRF method
[17] = molecular target: T4, Bromodomain testis-specific protein; experiment: Inhibition of BRDT BD2 (unknown origin) incubated for 15 mins by HTRF method
[18] = Selectivity ratio of IC50 for inhibition of BRD4 BD2 (unknown origin) to IC50 for inhibition of BRD4 BD1 (unknown origin)
[19] = Selectivity ratio of IC50 for inhibition of BRD3 BD2 (unknown origin) to IC50 for inhibition of BRD3 BD1 (unknown origin)
[20] = Selectivity ratio of IC50 for inhibition of BRD2 BD2 (unknown origin) to IC50 for inhibition of BRD2 BD1 (unknown origin)
[21] = Selectivity ratio of IC50 for inhibition of BRDT BD2 (unknown origin) to IC50 for inhibition of BRDT BD1 (unknown origin)
Microglia = experiment: Antiinflammatory activity against LPS induced neonatal rat cerebral cortex microglia by immunofluorescence assay; format: functional, cell-based
[22] = Solubility in water by HPLC analysis; format: physicochemical
[23] = Stability in rat liver microsomes assessed as half life; format: ADME, Microsome
[24] = Stability in rat liver microsomes assessed as intrinsic clearance; format: ADME, Microsome; details: read-out: CLH
[25] = Lipophilicity, logD of compound at pH 7.4 by LC-MS/MS based shake bottle method; format: physicochemical; details: buffer
[26] = Unbound drug level in ICR mouse brain incubated for 5 hrs by equilibrium dialysis method; format: ADME, tissue-based
[27] = Free maximum concentration of drug in ICR mouse brain; format: ADME, tissue-based
[28] = Cmax in Sprague-Dawley rat at 5 mg/kg, iv measured upto 25 hrs by LC-MS/MS analysis; format: ADME, organism-based; details: in vivo
[29] = Half life in Sprague-Dawley rat at 5 mg/kg, iv measured upto 25 hrs by LC-MS/MS analysis; format: ADME, organism-based; details: in vivo
[30] = Mean residence time in Sprague-Dawley rat at 5 mg/kg, iv measured upto 25 hrs by LC-MS/MS analysis; format: ADME, organism-based; details: in vivo
[31] = Cmax in Sprague-Dawley rat at 25 mg/kg, ip measured upto 25 hrs by LC-MS/MS analysis; format: ADME, organism-based; details: in vivo
[32] = Tmax in Sprague-Dawley rat at 25 mg/kg, ip measured upto 25 hrs by LC-MS/MS analysis; format: ADME, organism-based; details: in vivo
[33] = Half life in Sprague-Dawley rat at 25 mg/kg, ip measured upto 25 hrs by LC-MS/MS analysis; format: ADME, organism-based; details: in vivo
[34] = Mean residence time in Sprague-Dawley rat at 25 mg/kg, ip measured upto 25 hrs by LC-MS/MS analysis; format: ADME, organism-based; details: in vivo
[35] = Bioavailability in Sprague-Dawley rat at 25 mg/kg, ip measured upto 25 hrs by LC-MS/MS analysis; format: ADME, organism-based; details: in vivo
[36] = Cmax in Sprague-Dawley rat at 25 mg/kg, po measured upto 25 hrs by LC-MS/MS analysis; format: ADME, organism-based; details: in vivo
[37] = Tmax in Sprague-Dawley rat at 25 mg/kg, po measured upto 25 hrs by LC-MS/MS analysis; format: ADME, organism-based; details: in vivo
[38] = Half life in Sprague-Dawley rat at 25 mg/kg, po measured upto 25 hrs by LC-MS/MS analysis; format: ADME, organism-based; details: in vivo
[39] = Mean residence time in Sprague-Dawley rat at 25 mg/kg, po measured upto 25 hrs by LC-MS/MS analysis; format: ADME, organism-based; details: in vivo
[40] = Oral bioavailability in Sprague-Dawley rat at 25 mg/kg measured upto 25 hrs by LC-MS/MS analysis; format: ADME, organism-based; details: in vivo
[41] = Cmax in C57BL/6 mouse blood at 5 mg/kg, iv measured upto 25 hrs by LC-MS/MS analysis; format: ADME, organism-based
[42] = Cmax in C57BL/6 mouse brain at 5 mg/kg, iv measured upto 25 hrs by LC-MS/MS analysis; format: ADME, organism-based
[43] = Cmax in C57BL/6 mouse spinal cord at 5 mg/kg, iv measured upto 25 hrs by LC-MS/MS analysis; format: ADME, organism-based
[44] = Tmax in C57BL/6 mouse brain at 5 mg/kg, iv measured upto 25 hrs by LC-MS/MS analysis; format: ADME, organism-based
[45] = Tmax in C57BL/6 mouse spinal cord at 5 mg/kg, iv measured upto 25 hrs by LC-MS/MS analysis; format: ADME, organism-based
Mus musculus [46] = experiment: (§1) Anti-inflammatory activity in complete Freund's adjuvant/MOG (35 to 55 residues)/pertussis toxin-induced experimental autoimmune encephalomyelitis C57BL/6 mouse model assessed as reduction in clinical scores at 30 to 60 mg/kg, ip qd administered 6 days post immunization and measured every 3 days for 28 days post immunization; format: functional, organism-based; details: dose 30-60 mg/kg, time 22.0 day
Mus musculus [47] = experiment: as §1, with “change” for “reduction”, “cumulative” for “clinical”; format: functional, organism-based; details: dose 30-60 mg/kg, time 22.0 day
[48] = Toxicity in C57BL/6 mouse model of experimental autoimmune encephalomyelitis assessed as body weight loss at 30 to 60 mg/kg, ip administered 6 days post immunization and measured every 3 days for 28 days post immunization; format: organism-based; details: in vivo, 528 h, dose 30-60 mg/kg, time 22 day
[49] = Toxicity in C57BL/6 mouse model of experimental autoimmune encephalomyelitis assessed as animal death at 30 to 60 mg/kg, ip administered 6 days post immunization and measured every 3 days for 28 days post immunization; format: organism-based; details: in vivo, 144 h, dose 30-60 mg/kg, time 6 day
Mus musculus [50] = experiment: as §1, with “TNF-alpha level” for “clinical scores”; format: functional, organism-based; details: dose 30-60 mg/kg, time 22.0 day
Mus musculus [51] = experiment: as §1, with “IL-6 level” for “clinical scores”; format: functional, organism-based; details: dose 30-60 mg/kg, time 22.0 day
Mus musculus [52] = experiment: (§2) Anti-inflammatory activity in complete Freund's adjuvant/MOG (35 to 55 residues)/pertussis toxin-induced experimental autoimmune encephalomyelitis C57BL/6 mouse model assessed as appearance of normal myelin structure at 30 to 60 mg/kg, ip qd administered 6 days post immunization and measured every 3 days for 28 days post immunization by Luxol fast blue staining based bright field fluorescence microscopic analysis; format: functional, organism-based; details: dose 30-60 mg/kg, time 22.0 day
Mus musculus [53] = experiment: as §2, with “as” for “as appearance of normal”, “density” for “structure”, “at” for “at 30 to”; format: functional, organism-based; details: time 22.0 day
[54] = molecular target: T1, Bromodomain-containing protein 4; experiment: Binding affinity to BRD4 BD2 (unknown origin) assessed as change in enthalpy by ITC method
[55] = molecular target: T1, Bromodomain-containing protein 4; experiment: Binding affinity to BRD4 BD2 (unknown origin) assessed as change in entropy by ITC method
[56] = molecular target: T1, Bromodomain-containing protein 4; experiment: Binding affinity to BRD4 BD2 (unknown origin) assessed as change in gibbs free energy by ITC method

T3 sequence (P25440 whole entry): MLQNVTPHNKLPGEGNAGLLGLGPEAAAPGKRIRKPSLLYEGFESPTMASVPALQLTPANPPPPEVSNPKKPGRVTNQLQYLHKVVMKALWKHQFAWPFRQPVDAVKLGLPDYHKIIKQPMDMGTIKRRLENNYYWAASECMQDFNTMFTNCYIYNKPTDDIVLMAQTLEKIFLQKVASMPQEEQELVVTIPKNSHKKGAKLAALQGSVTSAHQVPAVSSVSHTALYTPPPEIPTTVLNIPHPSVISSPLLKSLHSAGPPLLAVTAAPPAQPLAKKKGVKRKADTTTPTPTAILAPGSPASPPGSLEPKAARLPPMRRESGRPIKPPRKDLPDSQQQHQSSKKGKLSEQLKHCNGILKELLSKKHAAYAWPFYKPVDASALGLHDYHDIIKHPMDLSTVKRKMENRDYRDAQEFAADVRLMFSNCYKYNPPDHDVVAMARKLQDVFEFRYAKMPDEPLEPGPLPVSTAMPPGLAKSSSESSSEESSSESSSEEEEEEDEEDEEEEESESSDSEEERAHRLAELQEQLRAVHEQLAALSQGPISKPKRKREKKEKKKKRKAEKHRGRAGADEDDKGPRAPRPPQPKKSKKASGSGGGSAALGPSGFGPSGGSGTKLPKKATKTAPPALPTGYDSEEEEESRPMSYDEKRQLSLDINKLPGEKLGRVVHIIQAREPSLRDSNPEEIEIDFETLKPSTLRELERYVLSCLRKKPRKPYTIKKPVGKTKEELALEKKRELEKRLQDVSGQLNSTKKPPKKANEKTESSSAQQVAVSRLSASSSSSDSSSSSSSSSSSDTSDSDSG
T2 sequence (Q15059 whole entry): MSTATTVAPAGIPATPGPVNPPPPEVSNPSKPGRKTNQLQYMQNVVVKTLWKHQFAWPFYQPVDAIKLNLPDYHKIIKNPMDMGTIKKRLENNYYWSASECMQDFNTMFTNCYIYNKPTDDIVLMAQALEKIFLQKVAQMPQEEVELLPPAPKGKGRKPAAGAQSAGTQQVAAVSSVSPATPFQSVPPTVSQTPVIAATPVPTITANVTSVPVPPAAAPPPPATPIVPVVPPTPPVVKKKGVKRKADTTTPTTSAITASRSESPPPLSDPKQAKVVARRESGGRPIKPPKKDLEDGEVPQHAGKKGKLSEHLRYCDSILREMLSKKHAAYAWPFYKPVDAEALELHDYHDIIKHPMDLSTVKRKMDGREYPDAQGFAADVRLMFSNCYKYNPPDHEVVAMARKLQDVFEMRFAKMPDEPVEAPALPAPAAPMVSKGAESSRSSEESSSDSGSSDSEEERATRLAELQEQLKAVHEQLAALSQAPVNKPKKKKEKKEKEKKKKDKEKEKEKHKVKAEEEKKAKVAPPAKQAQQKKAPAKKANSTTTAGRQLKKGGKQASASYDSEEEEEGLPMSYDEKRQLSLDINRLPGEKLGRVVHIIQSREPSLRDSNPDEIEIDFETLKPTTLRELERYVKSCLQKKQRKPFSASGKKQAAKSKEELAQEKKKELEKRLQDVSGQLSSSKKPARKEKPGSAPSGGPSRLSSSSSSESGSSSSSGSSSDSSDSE

Cn1cc(-c2cncc(-c3ccnc4nc[nH]c34)c2)c(C(F)(F)F)n1 gave a pKd [1] of 6.48, a pKd [2] of 4.96 and a Selectivity ratio [3] of 35.

Cc1nn(CC2CCCC2)c(C)c1-c1cncc(-c2ccnc3nc[nH]c23)c1 showed a pKd [1] of 6.00, a pKd [2] of 4.89 and a Selectivity ratio [3] of 13.

Cc1c(-c2cnccc2-c2ccnc3nc[nH]c23)cnn1C showed a pKd [1] of 5.62, a pKd [2] of 3.75 and a Selectivity ratio [3] of 73.

For Cc1nn(CC2CCCCC2)c(C)c1-c1cncc(-c2ccnc3nc[nH]c23)c1, the pKd [1] was 6.52, the pKd [2] was 5.03 and the Selectivity ratio [3] was 30.

Cc1c(-c2cncc(-c3ccnc4nc[nH]c34)c2)cnn1C gave a pKd [1] of 6.16, a pKd [2] of 4.51 and a Selectivity ratio [3] of 46.

Work on Cc1nn(CC2CC2)c(C)c1-c1cncc(-c2ccnc3nc[nH]c23)c1 yielded a pKd [1] of 6.64, a pKd [2] of 4.85 and a Selectivity ratio [3] of 60. It also gave a pKd [4] of 6.27, a pKd [5] of 4.68 and a Selectivity ratio [6] of 38. It also gave a deltaH [7] of -15.6 kcal/mol, a TdeltaS [8] of 7.1 kcal/mol and a deltaG [9] of -8.55 kcal/mol. It also gave a pIC50 [10] of 6.75, a pIC50 [11] of 5.32 and a pIC50 [12] of 6.74. The pIC50 [13] was 5.71, the pIC50 [14] was 6.30 and the pIC50 [15] was 5.68. The pIC50 [16] was 5.32, the pIC50 [17] was 5.52 and the Ratio IC50 [18] was 28. For the same molecule, the Ratio IC50 [19] was 11, the Ratio IC50 [20] was 4 and the Ratio IC50 [21] was 0.6. The Activity (Microglia) was “Active”, the solubility [22] was 760 µg/mL (≈ 2210 µM) and the half-life [23] was 3.7 h. It also gave a microsomal CLint [24] of 3.2 µL/min/mg, a logD [25] of 2.31 and a fraction unbound at 5 h [26] of 0.979. The fCmax [27] was 170 nM, the Cmax [28] was 17.2 µM and the half-life [29] was 3.56 h. For the same molecule, the MRT [30] was 4.46 h, the Cmax [31] was 89.4 µM and the Tmax [32] was 1 h. The half-life [33] was 3.53 h, the MRT [34] was 1.74 h and the bioavailability [35] was 121%. For the same molecule, the Cmax [36] was 7.15 µM, the Tmax [37] was 0.25 h and the half-life [38] was 6.31 h. For the same molecule, the MRT [39] was 8.93 h, the bioavailability [40] was 22% and the Cmax [41] was 17.2 µM. It also gave a Cmax [42] of 7.91 µM, a Cmax [43] of 3 µM and a Tmax [44] of 1 h. For the same molecule, the Tmax [45] was 1 h, the Activity (Mus musculus [46]) was “Active” and the Activity (Mus musculus [47]) was “Active”. For the same molecule, the Activity [48] was “Non-Toxic”, the Activity [49] was “Non-Toxic” and the Activity (Mus musculus [50]) was “Active”. The Activity (Mus musculus [51]) was “Active”, the Activity (Mus musculus [52]) was “Active” and the Activity (Mus musculus [53]) was “Active”. The deltaH [54] was -5.84 kcal/mol, the TdeltaS [55] was -0.533 kcal/mol and the deltaG [56] was -6.37 kcal/mol.
